Consider 24 molecules from patent US7928107B2, “Quinazolines useful as modulators of ion channels” (Vertex Pharmaceuticals Incorporated, priority 2004, dated 2011).

This assay deals with NaV 1.8 channel (Homo sapiens, UniProt Q9Y5Y9). Description: Activity against NaV 1.8 channel (optical membrane potential assay). Format: cell-based. On the procedure: Compounds of the invention are useful as antagonists of voltage-gated sodium ion channels. Antagonist properties of test compounds were assessed as follows. Cells expressing the NaV of interest were placed into microtiter plates. After an incubation period, the cells were stained with fluorescent dyes sensitive to the transmembrane potential. The test compounds were added to the microtiter plate. The cells were stimulated with either a chemical or electrical means to evoke a NaV dependent membrane potential change from unblocked channels, which was detected and measured with trans-membrane potential-sensitive dyes. Antagonists were detected as a decreased membrane potential response to the stimulus. The optical membrane potential assay utilized voltage-sensitive FRET sensors described by Gonzalez and Tsien (See, Gonzalez, J. E. and R. Y. Tsien (1995) “Voltage sensing by fluorescence resonance energy transfer in single cells” Biophys J 69(4): 1272-80, and Gonzalez, J. E. and R. Y. Tsien (1997) “Improved indicators of cell membrane potential that use fluorescence resonance energy transfer” Chem Biol 4(4): 269-77) in combination with instrumentation for measuring fluorescence changes such as the Voltage/Ion Probe Reader (VIPR®) (See, Gonzalez, J. E., K. Oades, et al. (1999) “Cell-based assays and instrumentation for screening ion-channel targets” Drug Discov Today 4(9): 431-439).
Sequence of NaV 1.8 channel (Q9Y5Y9 whole entry): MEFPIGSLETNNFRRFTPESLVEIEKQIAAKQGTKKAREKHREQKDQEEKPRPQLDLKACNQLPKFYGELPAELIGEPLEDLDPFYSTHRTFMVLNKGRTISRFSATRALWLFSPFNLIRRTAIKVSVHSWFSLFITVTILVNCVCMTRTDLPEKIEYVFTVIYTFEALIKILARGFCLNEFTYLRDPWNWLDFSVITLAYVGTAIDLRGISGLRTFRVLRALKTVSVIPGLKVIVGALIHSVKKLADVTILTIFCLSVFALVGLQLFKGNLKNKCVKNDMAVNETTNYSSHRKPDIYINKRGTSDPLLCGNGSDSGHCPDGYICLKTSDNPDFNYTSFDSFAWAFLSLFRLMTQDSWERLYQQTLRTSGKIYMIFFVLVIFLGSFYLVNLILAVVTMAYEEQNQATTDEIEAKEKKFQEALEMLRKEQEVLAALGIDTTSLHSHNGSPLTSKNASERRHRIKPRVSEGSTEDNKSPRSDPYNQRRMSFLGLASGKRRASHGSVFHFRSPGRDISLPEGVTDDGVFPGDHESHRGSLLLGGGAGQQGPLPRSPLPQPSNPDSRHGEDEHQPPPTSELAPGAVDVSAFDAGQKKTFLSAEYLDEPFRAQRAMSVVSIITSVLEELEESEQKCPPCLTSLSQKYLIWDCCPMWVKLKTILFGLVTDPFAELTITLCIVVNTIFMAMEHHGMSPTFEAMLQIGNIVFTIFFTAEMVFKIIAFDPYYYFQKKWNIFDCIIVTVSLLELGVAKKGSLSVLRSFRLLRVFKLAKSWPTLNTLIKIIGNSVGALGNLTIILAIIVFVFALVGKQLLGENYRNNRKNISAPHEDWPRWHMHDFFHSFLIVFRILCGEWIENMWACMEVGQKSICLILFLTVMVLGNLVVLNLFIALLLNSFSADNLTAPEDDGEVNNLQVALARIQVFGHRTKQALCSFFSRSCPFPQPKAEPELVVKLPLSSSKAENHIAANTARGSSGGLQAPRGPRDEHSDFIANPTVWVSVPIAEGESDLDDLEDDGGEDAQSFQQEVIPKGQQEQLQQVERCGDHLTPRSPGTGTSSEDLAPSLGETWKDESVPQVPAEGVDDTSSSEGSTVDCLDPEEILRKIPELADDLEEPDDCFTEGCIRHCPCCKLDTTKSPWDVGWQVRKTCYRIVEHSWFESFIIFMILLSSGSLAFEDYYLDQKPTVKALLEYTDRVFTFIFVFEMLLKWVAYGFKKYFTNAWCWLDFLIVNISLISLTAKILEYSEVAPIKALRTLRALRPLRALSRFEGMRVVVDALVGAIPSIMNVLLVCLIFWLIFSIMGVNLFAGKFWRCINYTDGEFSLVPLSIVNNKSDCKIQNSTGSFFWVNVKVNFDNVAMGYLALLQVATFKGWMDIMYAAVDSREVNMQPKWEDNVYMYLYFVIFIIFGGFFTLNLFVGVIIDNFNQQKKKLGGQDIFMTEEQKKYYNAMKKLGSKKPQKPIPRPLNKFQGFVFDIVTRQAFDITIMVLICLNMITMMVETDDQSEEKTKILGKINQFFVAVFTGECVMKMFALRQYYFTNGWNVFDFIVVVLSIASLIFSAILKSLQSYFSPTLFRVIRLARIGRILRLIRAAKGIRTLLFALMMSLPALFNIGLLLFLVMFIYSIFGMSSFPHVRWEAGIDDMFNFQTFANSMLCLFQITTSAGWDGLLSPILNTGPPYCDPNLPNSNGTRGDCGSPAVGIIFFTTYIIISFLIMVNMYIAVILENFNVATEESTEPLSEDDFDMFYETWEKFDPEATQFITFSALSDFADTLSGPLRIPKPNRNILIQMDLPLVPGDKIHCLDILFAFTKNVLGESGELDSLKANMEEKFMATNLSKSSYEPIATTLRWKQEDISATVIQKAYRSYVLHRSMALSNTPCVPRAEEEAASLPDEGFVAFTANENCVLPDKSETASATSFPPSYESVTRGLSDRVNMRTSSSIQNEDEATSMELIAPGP
24 hours before the assay on VIPR, CHO cells endogenously expressing a NaV1.2 type voltage-gated NaV are seeded in 96-well poly-lysine coated plates at 60,000 cells per well. Other subtypes are performed in an analogous mode in a cell line expressing the NaV of interest. • 1) On the day of the assay, medium is aspirated and cells are washed twice with 225 μL of Bath Solution #2 (BS#2). • 2) A 15 uM CC2-DMPE solution is prepared by mixing 5 mM coumarin stock solution with 10% Pluronic 127 1:1 and then dissolving the mix in the appropriate volume of BS#2. • 3) After bath solution is removed from the 96-well plates, the cells are loaded with 80 μL of the CC2-DMPE solution. Plates are incubated in the dark for 30 minutes at room temperature. • 4) While the cells are being stained with coumarin, a […] solution in BS#2 is prepared. In addition to DiSBAC2(3), this solution should contain 0.75 mM ABSCl and […] (prepared from 10 mM EtOH stock, Sigma #V-5754). • 5) After 30 minutes, CC2-DMPE is removed and the cells are washed twice with 225 μL of BS#2. As before, the residual volume should be 40 μL. • 6) Upon removing the bath, the cells are loaded with 80 μL of the DiSBAC2(3) solution, after which test compound, dissolved in DMSO, is added to achieve the desired test concentration to each well from the drug addition plate and mixed thoroughly. The volume in the well should be roughly 121 μL. The cells are then incubated for 20-30 minutes. • 7) Once the incubation is complete, the cells are ready to be assayed on VIPR® with a sodium add back protocol. 120 μL of Bath solution #1 is added to stimulate the NaV dependent depolarization. […] was used as an antagonist positive control for block of the NaV channel.
Data are analyzed and reported as normalized ratios of background-subtracted emission intensities measured in the 460 nm and 580 nm channels. Background intensities are then subtracted from each assay channel. Background intensities are obtained by measuring the emission intensities during the same time periods from identically treated assay wells in which there are no cells. The response as a function of time is then reported as the ratios obtained using the following formula: […]
The data is further reduced by calculating the initial (Ri) and final (Rf) ratios. These are the average ratio values during part or all of the pre-stimulation period, and during sample points during the stimulation period. The response to the stimulus R=Rf/Ri is then calculated. […]

By IC50 is commonly meant the midpoint of a concentration-inhibition curve. In the case of `O=C(CC1CCOCC1)N1CCN(c2nc(-c3ccccc3O)nc3ccc(F)cc23)CC1` [Example 128, 1-(4-(6-Fluoro-2-(2-hydroxyphenyl)quinazolin-4-yl)piperazin-1-yl)-2-(tetrahydro-2H-pyran-4-yl)ethanone], the IC50 fell in the range of 2 to 10 µM.
Then `CCC(C)(O)C(=O)N1CCN(c2nc(-c3ccccc3O)nc3ccccc23)CC1` (stereo not drawn) [Example 129, 2-Hydroxy-1-(4-(2-(2-hydroxyphenyl)quinazolin-4-yl)piperazin-1-yl)-2-methylbutan-1-one], with above 10 µM; and `Cc1ccc2c(N3CCN(C(=O)[C@H](O)Cc4ccccc4)CC3)nc(-c3ccccc3O)nc2c1` [Example 130, (R)-2-Hydroxy-1-{4-[2-(2-hydroxy-phenyl)-7-methyl-quinazolin-4-yl]-piperazin-1-yl}-3-phenylpropan-1-one], with above 10 µM; and `Cc1ccc2c(N3CCN(C(=O)[C@@H](O)Cc4ccccc4)CC3)nc(-c3ccccc3O)nc2c1` [Example 131, (S)-2-Hydroxy-1-{4-[2-(2-hydroxy-phenyl)-7-methyl-quinazolin-4-yl]-piperazin-1-yl}-3-phenylpropan-1-one], with above 10 µM.
Then `Cc1ccc2c(N3CCN(C(=O)OCc4cccnc4)CC3)nc(-c3ccccc3O)nc2c1` [Example 132, (Pyridin-3-yl)methyl 4-(2-(2-hydroxyphenyl)-7-methylquinazolin-4-yl)piperazine-1-carboxylate], with 2 to 10 µM; and `Cc1ccc2c(N3CCN(C(=O)CCc4ccccn4)CC3)nc(-c3ccccc3O)nc2c1` [Example 133, 1-(4-(2-(2-Hydroxyphenyl)-7-methylquinazolin-4-yl)piperazin-1-yl)-3-(pyridin-2-yl)propan-1-one], with 2 to 10 µM; and `CCCC(O)C(=O)N1CCN(c2nc(-c3ccccc3O)nc3cc(C)ccc23)CC1` (stereo not drawn) [Example 134, 2-Hydroxy-1-(4-(2-(2-hydroxyphenyl)-7-methylquinazolin-4-yl)piperazin-1-yl)pentan-1-one], with 2 to 10 µM.
In the case of `Cc1ccc2c(N3CCN(C(=O)[C@H](O)CC(C)(C)C)CC3)nc(-c3c(O)cccc3F)nc2c1` [Example 135, (R)-1-(4-(2-(2-Fluoro-6-hydroxyphenyl)-7-methylquinazolin-4-yl)piperazin-1-yl)-2-hydroxy-4,4-dimethylpentan-1-one] it was below 2 µM.
`Cc1ccc2c(N3CCN(C(=O)[C@H](O)CC(C)C)CC3)nc(-c3cc(F)ccc3O)nc2c1` [Example 136, (R)-1-(4-(2-(5-Fluoro-2-hydroxyphenyl)-7-methylquinazolin-4-yl)piperazin-1-yl)-2-hydroxy-4-methylpentan-1-one]: the IC50 is above 10 µM.
Then `CC[C@H](O)C(=O)N1CCN(c2nc(-c3ccccc3O)nc3cc(C)ccc23)CC1` [Example 137, (S)-2-Hydroxy-1-(4-(2-(2-hydroxyphenyl)-7-methylquinazolin-4-yl)piperazin-1-yl)butan-1-one], with 2 to 10 µM.
For `Cc1ccc2c(N3CCN(C(=O)[C@@H](O)C(C)(C)C)CC3)nc(-c3c(O)cccc3F)nc2c1` [Example 138, (S)-1-(4-(2-(2-Fluoro-6-hydroxyphenyl)-7-methylquinazolin-4-yl)piperazin-1-yl)-2-hydroxy-3,3-dimethylbutan-1-one], the IC50 is above 10 µM.
In the case of `CC(C)(C)[C@H](O)C(=O)N1CCN(c2nc(-c3ccccc3O)nc3ccc(F)cc23)CC1` [Example 139, (S)-1-(4-(6-Fluoro-2-(2-hydroxyphenyl)quinazolin-4-yl)piperazin-1-yl)-2-hydroxy-3,3-dimethylbutan-1-one] it was 2 to 10 µM.
In the case of `O=C(OCc1cccc2c1OCO2)N1CCN(c2nc(-c3ccccc3O)nc3ccccc23)CC1` [Example 140, (Benzo[d][1,3]dioxol-7-yl)methyl 4-(2-(2-hydroxyphenyl)quinazolin-4-yl)piperazine-1-carboxylate] it was above 10 µM.
In the case of `Cc1ccc2c(N3CCN(C(=O)[C@@H](O)Cc4cnc[nH]4)CC3)nc(-c3ccccc3O)nc2c1` [Example 141, (S)-2-Hydroxy-1-(4-(2-(2-hydroxyphenyl)-7-methylquinazolin-4-yl)piperazin-1-yl)-3-(1H-imidazol-5-yl)propan-1-one] it was above 10 µM; in that of `CC(C)C[C@@H](O)C(=O)N1CCN(c2nc(-c3ccccc3O)nc3ccc(C#N)cc23)CC1` [Example 142, 4-[4-((R)-2-Hydroxy-4-methyl-pentanoyl)-piperazin-1-yl]-2-(2-hydroxy-phenyl)-quinazoline-6-carbonitrile], 2 to 10 µM.
Regarding `CC(C)C[C@@H](O)C(=O)N1CCN(c2nc(-c3ccccc3O)nc3ccc(F)cc23)CC1` [Example 143, (R)-1-(4-(6-Fluoro-2-(2-hydroxyphenyl)quinazolin-4-yl)piperazin-1-yl)-2-hydroxy-4-methylpentan-1-one], the IC50 was 2 to 10 µM.
On to `Cc1ccc2c(N3CCN(C(=O)[C@@H](O)CC(C)C)CC3)nc(-c3ccccc3O)nc2c1` [Example 144, (S)-2-Hydroxy-1-(4-(2-(2-hydroxyphenyl)-7-methylquinazolin-4-yl)piperazin-1-yl)-4-methylpentan-1-one], for which the IC50 lay in the range of 2 to 10 µM.
Consider `Cc1ccc2c(N3CCN(C(=O)[C@H](O)CC(=O)O)CC3)nc(-c3ccccc3O)nc2c1` [Example 145, (R)-3-Hydroxy-4-(4-(2-(2-hydroxyphenyl)-7-methylquinazolin-4-yl)piperazin-1-yl)-4-oxobutanoic acid], for which the IC50 was above 10 µM.
Regarding `CC(C)C[C@@H](O)C(=O)N1CCN(c2nc(-c3c(O)cccc3Cl)nc3ccccc23)CC1` [Example 146, (R)-1-(4-(2-(2-Chloro-6-hydroxyphenyl)quinazolin-4-yl)piperazin-1-yl)-2-hydroxy-4-methylpentan-1-one], the IC50 was above 10 µM.
Then `Cc1ccc2c(N3CCN(C(=O)[C@H](O)CC(C)C)CC3)nc(-c3c(O)cccc3F)nc2c1` [Example 147, (R)-1-(4-(2-(2-Fluoro-6-hydroxyphenyl)-7-methylquinazolin-4-yl)piperazin-1-yl)-2-hydroxy-4-methylpentan-1-one], with 2 to 10 µM.
Then `O=C(O[C@@H]1CCOC1)N1CCN(c2nc(-c3ccccc3O)nc3ccc(F)cc23)CC1` [Example 148, (R)-Tetrahydrofuran-3-yl 4-(6-fluoro-2-(2-hydroxyphenyl)quinazolin-4-yl)piperazine-1-carboxylate], with 2 to 10 µM; and `Cc1ccc2c(N3CCN(C(=O)O[C@@H]4CCOC4)[C@@H](CO)C3)nc(-c3ccccc3O)nc2c1` [Example 149, (2R)-(R)-Tetrahydrofuran-3-yl 2-(hydroxymethyl)-4-(2-(2-hydroxyphenyl)-7-methylquinazolin-4-yl)piperazine-1-carboxylate], with above 10 µM.
In the case of `Cc1ccc2c(N3CCN(C(=O)[C@H](O)CC(C)C)CC3)nc(-c3c(C)cccc3O)nc2c1` [Example 150, (R)-2-Hydroxy-1-(4-(2-(2-hydroxy-6-methylphenyl)-7-methylquinazolin-4-yl)piperazin-1-yl)-4-methylpentan-1-one] it was above 10 µM; in that of `CC(=O)C[C@@H](O)C(=O)N1CCN(c2nc(-c3ccccc3O)nc3cc(C)ccc23)CC1` [Example 151, (R)-2-Hydroxy-1-(4-(2-(2-hydroxyphenyl)-7-methylquinazolin-4-yl)piperazin-1-yl)pentan-1,4-dione], above 10 µM.
